Test results: ChEMBL document CHEMBL4219239, “Synthesis and biological evaluation of aryl-oxadiazoles as inhibitors of Mycobacterium tuberculosis” (Bioorg Med Chem Lett, 2018)
Values after ≈ are worked out from the molar mass of the structure shown.

Experiments:
[1] = Metabolic stability in rat liver microsomes at 2 uM after 30 mins by LC-MS method; format: ADME, microsome; conditions: 0.5 h
[2] = test system: Mycobacterium tuberculosis; experiment: Antitubercular activity against Mycobacterium tuberculosis H37Rv expressing DsRed using 7H9-Ty-10BT medium after 6 days by 2-fold serial dilution method; format: functional; conditions: 144 h
[3] = Aqueous solubility of the compound at pH 6; format: physicochemical; conditions: buffer
[4] = Aqueous solubility of the compound at pH 7.4; format: physicochemical; conditions: buffer

With `c1csc(-c2nnc(CN3CCCc4ccccc43)o2)c1` as the molecule, how does the Stability [1] read?
Its Stability is “Stable”.

For `c1ccc(-c2nnc(CN3CCCc4ccccc43)o2)cc1`, which Stability [1] is on record?
The Stability was “Stable”.

Which Stability [1] does the source give for `CN(Cc1ccc(F)cc1)Cc1nnc(-c2ccccc2)o1` here?
Its Stability is “Stable”.

For `CN(CCc1c(F)cccc1Cl)c1nnc(-c2ccco2)o1`, which Stability [1] is on record?
The Stability was “Stable”.

Which Stability [1] does the source give for `c1csc(-c2nnc(CN3CCOc4ccccc43)o2)c1` here?
Its Stability is “Stable”.

Which Stability [1] does the source give for `Fc1ccc(-c2nnc(CN3CCOc4ccccc43)o2)cc1` here?
The Stability was “Stable”.

Which Stability [1] does the source give for `Fc1cccc(Cl)c1CNCc1nnc(-c2ccco2)o1` here?
Its Stability is “Stable”.

With `CN(Cc1nnc(-c2ccco2)o1)Cc1c(F)cccc1Cl` as the molecule, how does the Stability [1] read?
The Stability was “Stable”.

And the MIC [2]?
The MIC was 0.8 µM (≈ 0.257 µg/mL).

With `CN(Cc1ccccc1)Cc1nnc(-c2cccs2)o1` as the molecule, how does the Stability [1] read?
The Stability was “Stable”.

With `CC1CCc2ccccc2N1Cc1nc(-c2ccsc2)no1` (stereo unspecified) as the molecule, how does the Stability [1] read?
The Stability was “Stable”.

And the MIC [2]?
The MIC was 2.2 µM (≈ 0.685 µg/mL).

With `c1csc(-c2nnc(CN3Cc4ccccc4C3)o2)c1` as the molecule, how does the Stability [1] read?
The Stability was “Stable”.

With `c1ccc(-c2nnc(CN3CCOc4ccccc43)o2)cc1` as the molecule, how does the Stability [1] read?
Its Stability is “Stable”.

Which Stability [1] does the source give for `CN(Cc1ccc(C(F)(F)F)cc1)Cc1nnc(-c2cccs2)o1` here?
The Stability was “Stable”.

Which Stability [1] does the source give for `Fc1cccc(Cl)c1COCc1nnc(-c2ccco2)o1` here?
Its Stability is “Stable”.

For `FC(F)(F)c1ccc(-c2nnc(CN3CCOc4ccccc43)o2)cc1`, which Stability [1] is on record?
The Stability was “Stable”.

Which Stability [1] does the source give for `FC(F)(F)c1ccc(-c2nnc(CN3CCCc4ccccc43)o2)cc1` here?
Its Stability is “Stable”.

For `c1csc(-c2nnc(CN3CCc4ccccc43)o2)c1`, which Stability [1] is on record?
The Stability was “Stable”.

Which Stability [1] does the source give for `Fc1ccc(-c2nnc(CN3CCCc4ccccc43)o2)cc1` here?
Its Stability is “Stable”.

With `CN(Cc1nnc(-c2ccco2)o1)C(=O)c1c(F)cccc1Cl` as the molecule, how does the Stability [1] read?
Its Stability is “Stable”.

For `CN(Cc1ccc(C(F)(F)F)cc1)Cc1nnc(-c2ccccc2)o1`, which Stability [1] is on record?
The Stability was “Stable”.

For `c1csc(-c2nnc(Cc3ccc4ccccc4c3)o2)c1`, which Stability [1] is on record?
Its Stability is “Stable”.

With `CN(Cc1nnc(-c2ccco2)o1)Cc1c(F)cccc1Cl.O=C(O)/C=C\C(=O)O` as the molecule, how does the solubility [3] read?
The solubility was 0.687 mg/mL.

What about the solubility thermodynamic [4] of the same molecule?
The solubility thermodynamic was 0.717 mg/mL.

With `c1ccc(Cc2nnc(-c3cccs3)o2)cc1` as the molecule, how does the Stability [1] read?
Its Stability is “Stable”.

Which Stability [1] does the source give for `Fc1ccc(-c2nnc(CN3CCc4ccccc4C3)o2)cc1` here?
The Stability was “Stable”.

Which Stability [1] does the source give for `c1csc(-c2nnc(COc3ccc4c(c3)OCO4)o2)c1` here?
The Stability was “Stable”.

Which Stability [1] does the source give for `c1csc(-c2nnc(CN3CCc4ccccc4C3)o2)c1` here?
The Stability was “Stable”.

Which Stability [1] does the source give for `c1ccc(-c2nnc(CN3CCc4ccccc4C3)o2)cc1` here?
Its Stability is “Stable”.

For `FC(F)(F)c1ccc(-c2nnc(CN3CCc4ccccc4C3)o2)cc1`, which Stability [1] is on record?
Its Stability is “Stable”.

With `c1csc(-c2nnc(Cc3cccc4c3OCCO4)o2)c1` as the molecule, how does the Stability [1] read?
Its Stability is “Stable”.

For `c1ccc(C2CCCN2Cc2nnc(-c3cccs3)o2)cc1` (stereo unspecified), which Stability [1] is on record?
Its Stability is “Stable”.

With `c1ccc(-c2nnc(CN3CCc4ccccc43)o2)cc1` as the molecule, how does the Stability [1] read?
The Stability was “Stable”.

For `CN(Cc1nnc(-c2cccs2)o1)Cc1c(F)cccc1Cl`, which Stability [1] is on record?
The Stability was “Stable”.

What does the source list for `c1csc(-c2nnc(Cc3cccc4ccccc34)o2)c1`?
Stability [1]: Stable; MIC [2]: 0.4 µM (≈ 0.117 µg/mL)

Which Stability [1] does the source give for `c1ccc(-c2nnc(CN3Cc4ccccc4C3)o2)cc1` here?
Its Stability is “Stable”.

Which Stability [1] does the source give for `CN(Cc1nnc(-c2ccco2)s1)Cc1c(F)cccc1Cl` here?
Its Stability is “Stable”.

Which Stability [1] does the source give for `c1coc(-c2nnc(SCc3cccc4ccccc34)o2)c1` here?
The Stability was “Stable”.

For `CN(Cc1nnc(-c2ccco2)o1)Cc1ccccc1Cl`, which Stability [1] is on record?
The Stability was “Stable”.

With `c1ccc(-c2nnc(CN3CCCC3c3ccccc3)o2)cc1` (stereo unspecified) as the molecule, how does the Stability [1] read?
The Stability was “Stable”.

Which Stability [1] does the source give for `c1coc(-c2nnc(Cc3cccc4ccccc34)o2)c1` here?
The Stability was “Stable”.

For `CN(Cc1nnc(-c2ccccc2)o1)Cc1c(F)cccc1Cl`, which Stability [1] is on record?
Its Stability is “Stable”.

With `CN(Cc1ccccc1)Cc1nnc(-c2ccco2)o1` as the molecule, how does the Stability [1] read?
The Stability was “Stable”.

Which Stability [1] does the source give for `CN(Cc1nnc(-c2ccco2)o1)CC1CCCCC1` here?
Its Stability is “Stable”.
